Measured values taken from patent US12686667B2, “Methods and compositions for gamma-glutamyl cycle modulation” (CANCER RESEARCH TECHNOLOGIES LLC, priority 2013, dated 2026).

How the values were obtained:
[1] = system: tumor; test: Anti-cancer activity of (L) versus (D) conformation compounds in animal models and compassionate use (summary statement); type: in vivo; details: animal models and compassionate use treatment of human subjects
From the text: However, in contrast to D-penicillamine, the L-penicillamine stereoisomer is toxic, and has not been approved as a drug. […] Moreover, when the inventors compared the relative activities, the (L) conformation compounds of this disclosure appeared to be at least 2× as active as the corresponding racemate, due to the improved stereospecificity in the enzymatic catalysis of 5-oxoproline by 5 oxoprolinase.

[2] = system: Human Melanoma cells 624; test: Survival of nude mice inoculated with human melanoma; type: in vivo, athymic nude mice; details: nude mice, 400 rads, Human Melanoma cells 624; 100 mg/kg I.P. every day, six days a week; followed up for 120 days; control: ten out of ten died
Experimental: In order to examine the survival rate of athymic nude mice, inoculated intravenously with tumors, one group of the inoculated mice was treated with BA-GGCI, and a second group of the inoculated mice were treated with placebo, and the effects of treatment with BA-GGCI and placebo were compared.
Two subgroups of nude mice were examined: a control group and an experimental group. The groups included a total of twenty athymic nude mice (ten control and ten experimental), each irradiated with 400 rads of radiation and inoculated with Human Melanoma cells 624 at 3.0×10,000,000 cells per mouse. Treatment of the experimental group with racemic BA-GGCI commenced at 24 hours after the inoculation. The treatment was administered intraperitoneally (I.P.) at a dose of 100 mg/kg in 2 cc of saline every day, six days a week. The control group received placebo (2 cc saline IP), every day, six days a week.
The subjects were followed up for 120 days.

[3] = system: lung CA CRL5891; test: Survival of nude mice inoculated with human lung cancer; type: in vivo, athymic nude mice; details: nude male mice, 400 rads, lung CA CRL5891; 100 mg/kg I.P. every day, six days a week; followed up for 120 days; control: eight of ten died
Experimental: In order to examine survival of athymic nude mice inoculated intravenously with tumors, one group of the inoculated mice was treated with racemic BA-GGCI, and a second group of the inoculated mice were treated with placebo, and the effects of treatment with BA-GGCI and placebo were compared.
Two subgroups of nude male mice where examined: A control group and an experimental group. The groups included twenty athymic nude mice (ten control and ten experimental) subjects, each irradiated with 400 rads of radiation and inoculated with lung CA CRL5891 at 3×10,000,000 cells per mouse. Interventional treatment was identical to the first study as above.
The subjects were followed up for 120 days. In the Control group, eight of ten subjects died. Two of the surviving mice developed a large tumor.

[4] = system: patients with advanced prostate cancer; test: Compassionate use treatment of patients with advanced prostate cancer; type: in vivo, human; details: human patients
Experimental: Two patients with advanced prostate cancer were treated under a compassionate use program with an exemplary GGCI
Racemic BA-GGCI was administered to two human subjects who were receiving hormonal therapy for 12 and 14 months respectively.
At the onset of the GGCI treatment, both patients were bedridden with PSA (Prostate Specific Antigen) values of 340 and 180 ng/mL respectively. Both subjects presented with multiple bone metastases, and agonizing pains. The GGCI treatment protocol comprised 600 mg of GGCI capsule 3 times/day (formulated for human based on less then 5% of the LD50 toxicity on mice).

[5] = system: Balb C Mice; test: LD50 toxicity study on Balb C mice; type: in vivo
Experimental: LD50 data was measured, and exemplary gamma-glutamyl cycle inhibitor's toxicity study was conducted on Balb C Mice. A conjugate of L-penicillamine and methyl glyoxal (MGPA) was adminstered at about 4500 mg/kg ip, 5000 mg/kg oral. A conjugate of L-penicillamine and para-methoxyphenyl (PMPA) was administered at 5250 mg/kg ip, 5500 mg/kg oral; and a conjugate of L-penicillamine and citronellal (CNPA) was administered at 3250 mg/kg ip, 4500 mg/kg oral.

[6] = system: B6C3F1 Mice; test: LD50 determination in B6C3F1 mice; type: in vivo; set-up: 1/10 LD50: unit: mg/kg/inj
From the text: Summary of LD50 Determination with a conjugate of L-penicillamine and salicylaldehyde (L-SAPA), a conjugate of L-penicillamine and benzaldehyde (L-BAPA), a conjugate of L-penicillamine and pyruvic aldehyde (L-PAPA) and a conjugate of L-penicillamine and glutaric dialdehyde (L-GAPA) in B6C3F1 Mice.

[7] = system: human prostate tumor cell line; test: Nude mouse model inoculated with human prostate tumor cell line; racemic, L- and D-GGCI compared; type: in vivo, nude mice; details: (L) compound versus racemic mixture
Experimental: Relative activities of the exemplary enantiomeric GGCI compounds of this invention were compared. Conjugates of benzaldehyde, salicylaldehyde and para-methoxybenzaldehyde were prepared, using either enantiomeric L- or D-penicillamine as the second reactant. The efficacy of racemic BA-GGCI, racemic SA-GGCI and racemic PMB-GGCI in the treatment of human prostate cancer was tested using the nude mouse model as in Example 2, except that the nude mice were inoculated intravenously with a human prostate tumor cell line. One group of the inoculated mice was treated with the racemic BA-GGCI and a control group of the inoculated mice was treated with placebo, and the effects of treatment with GGCI and placebo were compared. Response to treatment was monitored by changes in [PSA].
The exemplary L- and D-enantiomer BA-GGCIs were prepared in accordance with synthetic scheme of FIG. 1 using L-penicillamine.

[8] = system: CD1 mice; test: Sub-acute (4 weeks) per os (via food) toxicity to mice; type: in vivo
From the text: Sample: L-Thiazolidine-di-methyl-carboxylic acid: “L-BAPA” powder was mixed in the food (pellets).
Subjects were examined for: Sub-acute (4 weeks) per os (via food) toxicity of L-BAPA to mice.
Forty females and forty male CD1 mice, 8-10 weeks old, were housed 5 per cage (milipore filtered top cages), half of them used as controls, receiving normal mouse diet (prepared at the breeding center food plant). The other half were the experimental group and received same food composition in which 0.6 g L-Thiazolidine-di-methyl-carboxylic acid in kg food was mixed and pelleted in smaller pellet machine. This food contains 12% humidity, as compared with 6% humidity of the control diet. The animals were fed ad libitum. All animals were weighed weekly and food consumption was recorded. Possible clinical or pharmaceutical effects were checked daily. After 4 weeks, the mice were put into metabolic cages for 24 hours, their urine was collected, and then the animals were bled before sacrificing. The blood was analyzed and bone marrow smears were prepared for differential count.
The reason for putting […] in a group was to assure enough blood and urine for analysis, so all the blood clinical chemistry and urinalysis are of a pool of 2 mice each. All other results are individual results, performed randomly on one of each 2 mouse group.
The following organs were examined histologically: adrenals, brain, eye, gonads, heart, intestines (colon, caecum, duodenum, ileum, rectum) kidneys, liver, lungs, lymph nodes (mesenterial and inguinal) mammary gland, mediastinum, esophagus, pancreas, pituitary, salivary gland, skeletal muscle, skin, spinal cord, spleen, stomach, thyroid, urinary bladder and uterus. The organs were fixed in Bouin's solution and stained with hematoxylin-eosin-phosphomolybdic-acid light green stain. Weights for the adrenals, gonads, kidneys, liver and pituitary were recorded and the ratio organ weight/body weight was calculated.
The following lab studies were performed:
Hematology: Hemoglobin, hematocrit, erythrocyte count, leukocyte count.
Clinical chemistry: alkaline phosphatase, blood urea nitrogen, serum glutamic, pyruvic transaminase, blood sugar.
Urinalysis: appearance occult blood, protein Ph, bilirubin, ketones, glucose, nitrites, urobilinogen.

[9] = CD1 mice, 0.6 g in kg food, 4 weeks
[10] = CD1 mice, 0.6 g in kg food, 4 weeks, versus control

Structure (SMILES): COc1ccc(C2NC(C(=O)O)C(C)(C)S2)cc1 (stereo not drawn) [(D) stereoisomer]
- anti-tumor / anti-cancer activity [1]: no activity

Structure (SMILES): CC1(C)SC(c2ccccc2O)NC1C(=O)O (racemic) [racemic SA-GGCI]
- survival of treated group [2]: results similar to those obtained with racemic BA-GGCI
- survival of treated group [3]: results similar to those obtained with racemic BA-GGCI
- subjective well-being of patients ([4]; compared with BA-GGCI): subjectively felt better than patients to whom BA-GGCI was administered
- overall treatment result in patients ([4]; compared with BA-GGCI treatment): results similar to those obtained with B-GGCI treatment

Structure (SMILES): CC(=O)C1NC(C(=O)O)C(C)(C)S1 (stereo not drawn) [MGPA]
- LD50 ([5]; ip): about 4500 mg/kg
- LD50 ([5]; oral): 5000 mg/kg

Structure (SMILES): CC(=O)C1N[C@@H](C(=O)O)C(C)(C)S1 (stereo partly drawn) [L-PAPA]
- 1/10 LD50 ([6]; Schedule Day 1, Route ip): 500
- Calculated LD50 mg/kg/inj. ([6]; Schedule Day 1, Route ip): >5000 mg/kg/inj.
- 1/10 LD50 ([6]; Schedule Day 1, Route oral): 500
- Calculated LD50 mg/kg/inj. ([6]; Schedule Day 1, Route oral): >5000 mg/kg/inj.
- 1/10 LD50 ([6]; Schedule Day 1-5, Route ip): 277
- Calculated LD50 mg/kg/inj. ([6]; Schedule Day 1-5, Route ip): 2771 mg/kg/inj.
- 1/10 LD50 ([6]; Schedule Day 1-5, Route oral): 500
- Calculated LD50 mg/kg/inj. ([6]; Schedule Day 1-5, Route oral): >5000 mg/kg/inj.

Structure (SMILES): CC1(C)SC(c2ccccc2)N[C@H]1C(=O)O (stereo partly drawn) [L-BAPA]
- activity compared to the corresponding racemate [7]: at least twice as active as the corresponding racemic mixture
- 1/10 LD50 ([6]; Schedule Day 1, Route ip): 88.4
- Calculated LD50 mg/kg/inj. ([6]; Schedule Day 1, Route ip): 884 mg/kg/inj.
- 1/10 LD50 ([6]; Schedule Day 1, Route oral): 355
- Calculated LD50 mg/kg/inj. ([6]; Schedule Day 1, Route oral): 3553 mg/kg/inj.
- 1/10 LD50 ([6]; Schedule Day 1-5, Route ip): 88.4
- Calculated LD50 mg/kg/inj. ([6]; Schedule Day 1-5, Route ip): 884 mg/kg/inj.
- 1/10 LD50 ([6]; Schedule Day 1-5, Route oral): 216
- Calculated LD50 mg/kg/inj. ([6]; Schedule Day 1-5, Route oral): 2158 mg/kg/inj.
- clinical symptoms, daily observation ([8]; CD1 mice, 0.6 g in kg food ad libitum, 4 weeks): no clinical or other effect could be observed
- Blood cell analysis and differential count [8, 9]: All values are within the normal range and no significant difference between the control and the experimental groups is noted
- Bone marrow differential count [8, 9]: All values are within the normal range and no significant difference between the control and the experimental groups is noted
- Histopathology ([8]; CD1 mice, 0.6 g in kg food, 4 weeks, 10 male and 10 females per group, thirty-one organs): No other pathological or other changes could be observed
- Food consumption ([8]; CD1 mice, 0.6 g in kg food, 4 weeks, experimental food 12% humidity versus 6% control): more L-BAPA containing experimental food was consumed by the experimental group then normal food by the control
- Blood clinical chemistry and urinalysis ([8]; CD1 mice, 0.6 g in kg food, 4 weeks, pool of 2 mice each): All values are within the normal range and no significant difference between the control and the experimental groups is noted
- Body weight [8, 10]: no significant difference between the experimental group and the control group
- Organ weight and ratio organ/body weight [8, 10]: No significant difference between the experimental and the control group is noted
- clinical or pathological changes (conclusion) ([8]; mixed in the food (0.6 g in kg food), fed ad libitum for 4 weeks): does not produce any clinical or pathological changes to mice
